# From patent US8912120B2, “Herbicidal compositions comprising 4-amino-3-chloro-5-fluoro-6-(4-chloro-2-fluoro-3-methoxyphenyl) pyridine-2-carboxylic acid or a derivative thereof and synthetic auxin herbicides” (Dow AgroSciences, LLC., priority 2012, dated 2014)
# Values joined by “and” are separate entries in the source; they are usually repeats but may differ in a detail not shown here. Equal entries are not always repeated.
# Tests used:
# CYPIR = assay: Example II: in-water applied herbicidal mixtures, transplanted paddy rice, CYPIR; type: in vivo, Cyperus iria L. (flatsedge; details: 21 DAA
# PANDI = assay: Example III: postemergence foliar-applied herbicidal mixtures, row crop weeds, PANDI; type: in vivo, Panicum dichotomiflorum (fall panicum); details: 16 DAA; 3.75 gae/ha
# Protocol: (§1) The plants were grown for 7-31 days (d) in a greenhouse with an approximate 15 hour (h) photoperiod which was maintained at about 23-29° C. during the day and 22-28° C. during the night.
# CYPES = assay: Example I: postemergence foliar-applied herbicidal mixtures, direct seeded rice, CYPES; type: in vivo, Cyperus esculentus (yellow nutsedge); details: 4.38 gae/ha
# Protocol: (§6) The soil matrix was contained in plastic pots with a volume of 1 quart and a surface area of 83.6 square centimeters (cm^2). […] The plants were grown for 8-22 days in a greenhouse with an approximate 14 h photoperiod which was maintained at about 29° C. during the day and 26° C. during the night. Nutrients (Peters Excel® 15-5-15 5-Ca 2-Mg and iron chelate) were applied in the irrigation solution as needed and water was added on a regular basis. Supplemental lighting was provided with overhead metal halide 1000-Watt lamps as necessary. The plants were employed for testing when they reached the first through fourth true leaf stage.
# (§7) Treatments consisted of the acid or esters of 4-amino-3-chloro-5-fluoro-6-(4-chloro-2-fluoro-3-methoxy-phenyl)pyridine-2-carboxylic acid (Compound A), each formulated as an SC (suspension concentrate), and various herbicidal components alone and in combination. Forms of compound A were applied on an acid equivalent basis.
# (§8) For treatments comprised of formulated compounds, measured amounts of compounds were placed individually in 25 mL glass vials and diluted in a volume of 1.25% (v/v) Agri-Dex® crop oil concentrated to obtain 12× stock solutions. […] Application solutions were prepared by adding an appropriate amount of each stock solution (e.g., 1 mL) and diluted to the appropriate final concentrations with the addition of 10 mL of an aqueous mixture of 1.25% (v/v) crop oil concentrate so that the final spray solutions contained 1.25+/−0.05% (v/v) crop oil concentrate.
# (§9) All stock solutions and applications solutions were visually inspected for compound compatibility prior to application. Spray solutions were applied to the plant material with an overhead Mandel track sprayer equipped with a 8002E nozzles calibrated to deliver 187 L/ha over an application area of 0.503 m^2 at a spray height of 18 to 20 inches (46 to 50 cm) above average plant canopy height. Control plants were sprayed in the same manner with the solvent blank.
# (§10) The treated plants and control plants were placed in a greenhouse as described above and watered by sub-irrigation to prevent wash-off of the test compounds. After approximately 3 weeks, the condition of the test plants as compared with that of the untreated plants was determined visually and scored on a scale of 0 to 100 percent where 0 corresponds to no injury or growth inhibition and 100 corresponds to complete kill.
# (§11) Colby's equation was used to determine the herbicidal effects expected from the mixtures (Colby, S. R. 1967. Calculation of the synergistic and antagonistic response of herbicide combinations. Weeds 15:20-22).
# (§12) The following equation was used to calculate the expected activity of mixtures containing two active ingredients, A and B: Expected=A+B−(A×B/100) […]
# FIMMI = assay: Example II: in-water applied herbicidal mixtures, transplanted paddy rice, FIMMI; type: in vivo, Fimbristylis miliacea (globe fringerush); details: 22 DAA; 10.6 gae/ha
# Protocol: The prepared mud was dispensed in 365 mL aliquots into 16-ounce (oz.) non-perforated plastic pots with a surface area of 86.59 square centimeters (cm^2) leaving a headspace of 3 centimeters (cm) in each pot Mud was allowed to dry overnight prior to planting or transplanting. Rice seeds were planted in Sun Gro MetroMix® 306 planting mixture, which typically has a pH of 6.0 to 6.8 and an organic matter content of about 30 percent, in plastic plug trays. Seedlings at the second or third leaf stage of growth were transplanted into 840 mL of mud contained in 32-oz. non-perforated plastic pots with a surface area of 86.59 cm^2 4 days prior to herbicide application. […] Nutrients were added as Osmocote® (19:6:12, N:P:K^+ minor nutrients) at 2 g per 16-oz. pot and 4 g per 32-oz. pot.
# Applications were made by injecting with a pipetter appropriate amounts of the application solutions, individually and sequentially, into the aqueous layer of the paddy. Control plants were treated in the same manner with the solvent blank. Applications were made so that all treated plant material received the same concentrations of acetone and crop oil concentrate.
# SCPJU = assay: Example II: in-water applied herbicidal mixtures, transplanted paddy rice, SCPJU; type: in vivo, Schoenoplectus juncoides (Japanese bulrush); details: for Visual Weed Control (%) - 21 DAA SCPJU Obs / Visual Weed Control (%) - 25 DAA SCPJU Obs: in-water application
# Summary of the method: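 Greenhouse paddy pots of dried mud; rice seedlings at the second or third leaf stage were transplanted into mud 4 days before treatment. Osmocote 19:6:12 supplied nutrients. Solutions were pipetted individually and sequentially into the paddy water, with equal acetone and crop oil concentrate across treatments; controls got solvent blank.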
# CYPDI = assay: Example I: postemergence foliar-applied herbicidal mixtures, direct seeded rice, CYPDI; type: in vivo, Cyperus difformis (smallflower umbrella sedge)
# Protocol: as §6, §7, §8, §9, §10, §11, §12
# CIRAR [1] = assay: Example IV: postemergence foliar-applied herbicidal mixtures, cereal crops, CIRAR; type: in vivo, Cirsium arvense (Canada thistle); details: alone, 8.75 gai/ha, 20-22 days
# Protocol: (§2) Seeds of the desired test plant species were planted in Sun Gro MetroMix 306 planting mixture, which typically has a pH of 6.0 to 6.8 and an organic matter content of about 30 percent, in plastic pots with a surface area of 103.2 square centimeters (cm^2). […] The plants were grown for 7-36 days in a greenhouse with an approximate 14 hour photoperiod which was maintained at about 18° C. during the day and 17° C. during the night.
# (§3) Spray solutions of the second cereal herbicide and experimental compound mixtures were prepared by adding the stock solutions to the appropriate amount of dilution solution to form 12 mL spray solution with active ingredients in two- and three-way combinations.
# ISCRU = assay: Example I: postemergence foliar-applied herbicidal mixtures, direct seeded rice, ISCRU; type: in vivo, Ischaemum rugosum (saramollagrass)
# Protocol: as §6, §7, §8, §9, §10, §11
# The following equation was used to calculate the expected activity of mixtures containing two active ingredients, A and B: Expected=A+B−(A×B/100)
# A=observed efficacy of active ingredient A at the same concentration as used in the mixture.
# B=observed efficacy of active ingredient B at the same concentration as used in the mixture.
# SOOSS = assay: Example V: postemergence herbicidal activity of mixtures in forage crops, SOOSS; type: in vivo, Solidago L. spec. (goldenrod); details: alone, foliar, approximately 21 days
# Protocol: as §2, with “Seeds or root cuttings” for “Seeds”, “MetroMix®” for “MetroMix”, “126.6” for “103.2”, “14-60” for “7-36”, “approximately 28°” for “about 18°”, “24°” for “17°”
# (§4) Spray solutions of the second herbicide or experimental compound mixtures were prepared by adding the stock solutions to the appropriate amount of dilution solution to form 12 mL spray solution with active ingredients in two-way combinations.
# CENMA = assay: Example V: postemergence herbicidal activity of mixtures in forage crops, CENMA; type: in vivo, Centaurea maculosa (spotted knapweed); details: alone, foliar, approximately 21 days
# Summary of the method: (§5)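 Plants grown from seed or root cuttings in MetroMix 306 (pH 6.0–6.8) for 14–60 days in greenhouse, ~14 h photoperiod, ~28/24 °C day/night. Foliar spray of two-way mixtures of the second herbicide or experimental compounds applied postemergence.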
# VIOTR = assay: Example IV: postemergence foliar-applied herbicidal mixtures, cereal crops, VIOTR; type: in vivo, Viola tricolor (wild pansy); details: 8.75 gai/ha
# Summary of the method: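 Greenhouse plants were grown 7–36 days in potting mix (pH 6.0–6.8) under ~14 h photoperiod at about 18 °C day/17 °C night. Postemergence foliar sprays (12 mL) contained the second cereal herbicide with experimental compound as two- and three-way mixtures.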
# SINAR = assay: Example V: postemergence herbicidal activity of mixtures in forage crops, SINAR; type: in vivo, Sinapis arvensis (wild mustard); details: alone, foliar, approximately 21 days
# Summary of the method: as §5
# SONAR = assay: Example V: postemergence herbicidal activity of mixtures in forage crops, SONAR; type: in vivo, Sonchus arvensis (field sowthistle); details: alone, foliar, approximately 21 days
# Summary of the method: as §5
# BRSNN = assay: Example IV: postemergence foliar-applied herbicidal mixtures, cereal crops, BRSNN; type: in vivo, Brassica napus (volunteer canola); details: 8.75 gai/ha
# Protocol: as §2, §3
# STEME = assay: Example IV: postemergence foliar-applied herbicidal mixtures, cereal crops, STEME; type: in vivo, Stellaria media (common chickweed); details: alone, 8.75 gai/ha, 20-22 days
# Protocol: as §2, §3
# SIDSP = assay: Example V: postemergence herbicidal activity of mixtures in forage crops, SIDSP; type: in vivo, Sida spinosa (prickly sida); details: alone, foliar, approximately 21 days
# Protocol: as §2, with “Seeds or root cuttings” for “Seeds”, “MetroMix®” for “MetroMix”, “126.6” for “103.2”, “14-60” for “7-36”, “approximately 28°” for “about 18°”, “24°” for “17°”
# as §4
# CIRAR [2] = assay: Example V: postemergence herbicidal activity of mixtures in forage crops, CIRAR; type: in vivo, Cirsium arvense (Canada thistle); details: alone, foliar, approximately 21 days
# Protocol: as §2, with “Seeds or root cuttings” for “Seeds”, “MetroMix®” for “MetroMix”, “126.6” for “103.2”, “14-60” for “7-36”, “approximately 28°” for “about 18°”, “24°” for “17°”
# as §4
# SORHA = assay: Example III: postemergence foliar-applied herbicidal mixtures, row crop weeds, SORHA; type: in vivo, Sorghum halepense (johnsongrass); details: 13 DAA
# Protocol: as §1
# TRFRE = assay: Example V: postemergence herbicidal activity of mixtures in forage crops, TRFRE; type: in vivo, Trifolium repens (white clover); details: alone, foliar, approximately 21 days
# Protocol: as §2, with “Seeds or root cuttings” for “Seeds”, “MetroMix®” for “MetroMix”, “126.6” for “103.2”, “14-60” for “7-36”, “approximately 28°” for “about 18°”, “24°” for “17°”
# as §4
# CASOB = assay: Example V: postemergence herbicidal activity of mixtures in forage crops (greenhouse), CASOB; type: in vivo, Cassia obtusifolia (sicklepod); details: alone, foliar, approximately 21 days
# Protocol: as §2, with “Seeds or root cuttings” for “Seeds”, “MetroMix®” for “MetroMix”, “126.6” for “103.2”, “14-60” for “7-36”, “approximately 28°” for “about 18°”, “24°” for “17°”
# as §4
smiles,measurement,setting,value
"COc1c(Cl)ccc(-c2nc(C(=O)O)c(Cl)c(N)c2F)c1F [Compound A Acid, 4-amino-3-chloro-6-(4-chloro-2-fluoro-3-methoxyphenyl)-5-fluoropyridine-2-carboxylic acid]",Visual Weed Control (%) Obs,CYPIR; 8.75 gae/ha,0%
same,Visual Weed Control (%) Obs,CYPIR; 17.5 gae/ha,0%
same,Visual Weed Control (%) Obs,CYPIR; 35 gae/ha,95%
same,Visual Weed Control (%) Obs,PANDI,60%
same,Visual Weed Control (%) - 21 DAA CYPES Obs,CYPES,18%
same,Visual Weed Control (%) Obs,FIMMI,40%
same,Visual Weed Control (%) - 21 DAA SCPJU Obs,SCPJU; 8.75 gae/ha,15%
same,Visual Weed Control (%) - 25 DAA SCPJU Obs,SCPJU; 8.75 gae/ha,65%
same,Visual Weed Control (%) - 21 DAA SCPJU Obs,SCPJU; 17.5 gae/ha,80%
same,Visual Weed Control (%) - 25 DAA SCPJU Obs,SCPJU; 17.5 gae/ha,80%
same,Visual Weed Control (%) Obs,"SCPJU; 22 DAA, 10.6 gae/ha",60%
same,Visual Weed Control (%) Obs,"SCPJU; 25 DAA, 8.75 gae/ha",65%
same,Visual Weed Control (%) Obs,"SCPJU; 25 DAA, 17.5 gae/ha",80%
same,Visual Weed Control (%) Obs,"SCPJU; 25 DAA, 35 gae/ha",95%
same,Visual Weed Control (%) - 25 DAA SCPJU Obs,SCPJU; 35 gae/ha,95%
same,Visual Weed Control (%) - 21 DAA CYPDI Obs,CYPDI; 4.38 gae/ha,50%
same,Visual Weed Control (%) - 21 DAA CYPDI Obs,CYPDI; 8.75 gae/ha,85%
"COc1c(Cl)ccc(-c2nc(C(=O)OCc3ccccc3)c(Cl)c(N)c2F)c1F [Compound A Benzyl Ester, benzyl ester of 4-amino-3-chloro-5-fluoro-6-(4-chloro-2-fluoro-3-methoxy-phenyl)pyridine-2-carboxylic acid]",CIRAR Ob (observed value),CIRAR [1],70%
same,Visual Weed Control (%) - 21 DAA ISCRU Obs,ISCRU; 8 gae/ha,20%
same,Visual Weed Control (%) - 21 DAA ISCRU Obs,ISCRU; 16 gae/ha,0%
same,SOOSS Obs (observed value),SOOSS; 2.2 gae/ha,15%
same,SOOSS Obs (observed value),SOOSS; 17.5 gae/ha,100%
same,CENMA Obs (observed value),CENMA; 4.4 gae/ha,70%
same,CENMA Obs (observed value),CENMA; 8.8 gae/ha,85%
same,CENMA Obs (observed value),CENMA; 17.5 gae/ha,95%
same,Weed Control Ob,VIOTR; after 20-22 days,30%
same,VIOTR Ob (observed value),"VIOTR; alone, foliar, 20-22 days",30%
same,SINAR Obs (observed value),SINAR; 1.1 gae/ha,72%
same,SINAR Obs (observed value),SINAR; 2.2 gae/ha,98%
same,SINAR Obs (observed value),SINAR; 4.4 gae/ha,80% and 100%
same,SINAR Obs (observed value),SINAR; 8.8 gae/ha,100%
same,SINAR Obs (observed value),SINAR; 17.5 gae/ha,100%
same,SONAR Obs (observed value),SONAR; 4.4 gae/ha,65%
same,SONAR Obs (observed value),SONAR; 8.8 gae/ha,100%
same,SONAR Obs (observed value),SONAR; 17.5 gae/ha,95%
same,Weed Control Ob,BRSNN; after 20-22 days,23%
same,BRSNN Ob (observed value),"BRSNN; alone, foliar, 20-22 days",23%
same,STEME Ob (observed value),STEME,70%
same,SIDSP Obs (observed value),SIDSP; 1.1 gae/ha,72%
same,SIDSP Obs (observed value),SIDSP; 2.2 gae/ha,77%
same,SIDSP Obs (observed value),SIDSP; 4.4 gae/ha,85%
same,CIRAR Obs (observed value),CIRAR [2]; 2.2 gae/ha,25%
same,CIRAR Obs (observed value),CIRAR [2]; 4.4 gae/ha,30% and 25%
same,CIRAR Obs (observed value),CIRAR [2]; 8.8 gae/ha,30%
same,CIRAR Obs (observed value),CIRAR [2]; 17.5 gae/ha,30%
same,Visual Weed Control (%) Obs,SORHA; 3.75 gae/ha,0%
same,Visual Weed Control (%) Obs,SORHA; 7.5 gae/ha,0%
same,Visual Weed Control (%) Obs,SORHA; 15 gae/ha,10%
same,TRFRE Obs (observed value),TRFRE; 4.4 gae/ha,0%
same,TRFRE Obs (observed value),TRFRE; 8.8 gae/ha,10%
same,TRFRE Obs (observed value),TRFRE; 17.5 gae/ha,30%
same,CASOB Obs (observed value),CASOB; 1.1 gae/ha,28%
same,CASOB Obs (observed value),CASOB; 2.2 gae/ha,33%
same,CASOB Obs (observed value),CASOB; 4.4 gae/ha,38%
